Patent US4874844A, “Tripeptide with immunostimulating activity” (Ellem Industria Farmaceutica S.p.A., priority 1986, dated 1989)
Peptide text beside a SMILES is read from it.

Key:
[1] = format: in vitro ADME
Excerpt: Resistance to the In Vitro Simulated Gastric Ambient The tripeptide is resistant to the in vitro simulated gastric ambient. In this study the gastric simulated juice USP XXI (HCl+pepsin) has been used at 37 C for 5 hrs.

mice [2] = assay: Acute toxicity in mice; format: in vivo; conditions: up to a dose of 1000 mg/Kg i.m.
rats = assay: Acute toxicity in rats; format: in vivo; conditions: up to a dose of 1000 mg/Kg i.m.
rabbits = assay: Tolerability in rabbits; format: in vivo; conditions: 100 mg/Kg i.v.
mice [3] = assay: Tolerability in mice; format: in vivo; conditions: 100 mg/Kg i.p.
[4] = Pentobarbital-induced sleeping time; format: in vivo; conditions: 100 mg/Kg
guinea-pig = conditions: in vivo, 100 mg/kg

N=C(N)NCCC[C@H](N)C(=O)N[C@@H](CCCCN)C(=O)N[C@@H](CCC(=O)O)C(=O)O [ELS1, Arg-Lys-Glu] (H-Arg-Lys-Glu-OH)
resistance to the in vitro simulated gastric ambient [1]: resistant
acute toxicity (mice [2]): totally devoid of toxic effects
acute toxicity (rats): totally devoid of toxic effects
tolerability: hemodynamic modification and behavioral effect (rabbits): doesn't cause any hemodynamic modification and behavioral effect
tolerability: hemodynamic modification and behavioral effect (mice [3]): doesn't cause any hemodynamic modification and behavioral effect
pentobarbital-induced sleeping time [4]: only a slight increase
sensitization phenomena (guinea-pig): doesn't induce any sensitization phenomena
